Results taken from ChEMBL document CHEMBL3784929, “Pharmacokinetics of valproic acid in volunteers after a single dose study” (Biopharm Drug Dispos, 1985).

What was measured:
Assay type in all cases: ADME, organism-based
[1] = Total serum concentration in healthy human (6 volunteers) at 1 g, po administered as single dose measured after 30 hrs by gas liquid chromatography; conditions: read-out: Drug uptake
[2] = Total AUC in healthy human (6 volunteers) at 1 g, po administered as single dose by gas liquid chromatography; design: dose 1 g, time AUCmax, route oral; conditions: in vivo
[3] = Fraction unbound in healthy human (6 volunteers) serum at 1 g, po administered as single dose measured after 14 hrs
[4] = Total serum concentration in healthy human (6 volunteers) at 1 g, po administered as single dose measured after 2 hrs by gas liquid chromatography; conditions: read-out: Drug uptake
[5] = Fraction unbound in healthy human (6 volunteers) serum at 1 g, po administered as single dose measured after 6 hrs
[6] = tested on: Serum; assay: Unbound serum concentration in healthy human (6 volunteers) at 1 g, po administered as single dose measured after 24 hrs by enzyme multiple immunotechnique; conditions: in vivo
[7] = Total serum concentration in healthy human (6 volunteers) at 1 g, po administered as single dose measured after 4 hrs by gas liquid chromatography; conditions: read-out: Drug uptake
[8] = Fraction unbound in healthy human (6 volunteers) serum at 1 g, po administered as single dose measured after 2 hrs
[9] = Total serum concentration in healthy human (6 volunteers) at 1 g, po administered as single dose measured after 6 hrs by gas liquid chromatography; conditions: read-out: Drug uptake
[10] = Fraction unbound in healthy human (6 volunteers) serum at 1 g, po administered as single dose measured after 0.33 hrs
[11] = Fraction unbound in healthy human (6 volunteers) serum at 1 g, po administered as single dose measured after 3 hrs
[12] = Total serum concentration in healthy human (6 volunteers) at 1 g, po administered as single dose measured after 24 hrs by gas liquid chromatography; conditions: read-out: Drug uptake
[13] = Fraction unbound in healthy human (6 volunteers) serum at 1 g, po administered as single dose measured after 10 hrs
[14] = tested on: Serum; assay: Unbound serum concentration in healthy human (6 volunteers) at 1 g, po administered as single dose measured after 1.5 hrs by enzyme multiple immunotechnique; conditions: in vivo
[15] = Total serum concentration in healthy human (6 volunteers) at 1 g, po administered as single dose measured after 3 hrs by gas liquid chromatography; conditions: read-out: Drug uptake
[16] = Fraction unbound in healthy human (6 volunteers) serum assessed as ratio of fAUC to total AUC at 1 g, po administered as single dose by gas liquid chromatography
[17] = tested on: Serum; assay: Unbound serum concentration in healthy human (6 volunteers) at 1 g, po administered as single dose measured after 10 hrs by enzyme multiple immunotechnique; conditions: in vivo
[18] = tested on: Serum; assay: Unbound serum concentration in healthy human (6 volunteers) at 1 g, po administered as single dose measured after 1 hr by enzyme multiple immunotechnique; conditions: in vivo
[19] = Total serum concentration in healthy human (6 volunteers) at 1 g, po administered as single dose measured after 8 hrs by gas liquid chromatography; conditions: read-out: Drug uptake
[20] = Fraction unbound in healthy human (6 volunteers) serum at 1 g, po administered as single dose measured after 5 hrs
[21] = Total serum concentration in healthy human (6 volunteers) at 1 g, po administered as single dose measured after 14 hrs by gas liquid chromatography; conditions: read-out: Drug uptake
[22] = Total serum concentration in healthy human (6 volunteers) at 1 g, po administered as single dose measured after 1.5 hrs by gas liquid chromatography; conditions: read-out: Drug uptake
[23] = tested on: Serum; assay: Unbound serum concentration in healthy human (6 volunteers) at 1 g, po administered as single dose measured after 0.66 hrs by enzyme multiple immunotechnique; conditions: in vivo
[24] = Terminal half life in healthy human (6 volunteers) at 1 g, po administered as single dose by gas liquid chromatography; conditions: in vivo, read-out: beta t1/2 (converted)
[25] = tested on: Serum; assay: Unbound serum concentration in healthy human (6 volunteers) at 1 g, po administered as single dose measured after 4 hrs by enzyme multiple immunotechnique; conditions: in vivo
[26] = Fraction unbound in healthy human (6 volunteers) serum at 1 g, po administered as single dose measured after 1 hr
[27] = tested on: Serum; assay: Unbound serum concentration in healthy human (6 volunteers) at 1 g, po administered as single dose measured after 14 hrs by enzyme multiple immunotechnique; conditions: in vivo
[28] = Total serum concentration in healthy human (6 volunteers) at 1 g, po administered as single dose measured after 0.66 hrs by gas liquid chromatography; conditions: read-out: Drug uptake
[29] = tested on: Serum; assay: Unbound serum concentration in healthy human (6 volunteers) at 1 g, po administered as single dose measured after 12 hrs by enzyme multiple immunotechnique; conditions: in vivo
[30] = Fraction unbound in healthy human (6 volunteers) serum at 1 g, po administered as single dose measured after 1.5 hrs
[31] = Fraction unbound in healthy human (6 volunteers) serum at 1 g, po administered as single dose measured after 12 hrs
[32] = tested on: Serum; assay: Unbound serum concentration in healthy human (6 volunteers) at 1 g, po administered as single dose measured after 39 hrs by enzyme multiple immunotechnique; conditions: in vivo
[33] = tested on: Serum; assay: Unbound serum concentration in healthy human (6 volunteers) at 1 g, po administered as single dose measured after 8 hrs by enzyme multiple immunotechnique; conditions: in vivo
[34] = Drug metabolism in healthy human (6 volunteers) assessed as excretion of valproic acid glucuronide in urine at 1 g, po administered as single dose measured upto 48 hrs by gas liquid chromatography; conditions: in vivo
[35] = Tmax in healthy human (6 volunteers) at 1 g, po administered as single dose by gas liquid chromatography; conditions: in vivo
[36] = tested on: Serum; assay: Unbound serum concentration in healthy human (6 volunteers) at 1 g, po administered as single dose measured after 30 hrs by enzyme multiple immunotechnique; conditions: in vivo
[37] = Fraction unbound in healthy human (6 volunteers) serum at 1 g, po administered as single dose measured after 4 hrs
[38] = tested on: Serum; assay: Unbound serum concentration in healthy human (6 volunteers) at 1 g, po administered as single dose measured after 48 hrs by enzyme multiple immunotechnique; conditions: in vivo
[39] = Total serum concentration in healthy human (6 volunteers) at 1 g, po administered as single dose measured after 5 hrs by gas liquid chromatography; conditions: read-out: Drug uptake
[40] = tested on: Serum; assay: Unbound serum concentration in healthy human (6 volunteers) at 1 g, po administered as single dose measured after 6 hrs by enzyme multiple immunotechnique; conditions: in vivo
[41] = tested on: Serum; assay: Unbound serum concentration in healthy human (6 volunteers) at 1 g, po administered as single dose measured after 3 hrs by enzyme multiple immunotechnique; conditions: in vivo
[42] = Total serum concentration in healthy human (6 volunteers) at 1 g, po administered as single dose measured after 12 hrs by gas liquid chromatography; conditions: read-out: Drug uptake
[43] = Total serum concentration in healthy human (6 volunteers) at 1 g, po administered as single dose measured after 39 hrs by gas liquid chromatography; conditions: read-out: Drug uptake
[44] = Total serum concentration in healthy human (6 volunteers) at 1 g, po administered as single dose measured after 10 hrs by gas liquid chromatography; conditions: read-out: Drug uptake
[45] = Total serum concentration in healthy human (6 volunteers) at 1 g, po administered as single dose measured after 0.33 hrs by gas liquid chromatography; conditions: read-out: Drug uptake
[46] = tested on: Homo sapiens; assay: fAUC in healthy human (6 volunteers) at 1 g, po administered as single dose by gas liquid chromatography; conditions: in vivo
[47] = Total serum concentration in healthy human (6 volunteers) at 1 g, po administered as single dose measured after 48 hrs by gas liquid chromatography; conditions: read-out: Drug uptake
[48] = tested on: Serum; assay: Unbound serum concentration in healthy human (6 volunteers) at 1 g, po administered as single dose measured after 0.33 hrs by enzyme multiple immunotechnique; conditions: in vivo
[49] = Total serum concentration in healthy human (6 volunteers) at 1 g, po administered as single dose measured after 1 hr by gas liquid chromatography; conditions: read-out: Drug uptake
[50] = Fraction unbound in healthy human (6 volunteers) serum at 1 g, po administered as single dose
[51] = Fraction unbound in healthy human (6 volunteers) serum at 1 g, po administered as single dose measured after 0.66 hrs
[52] = Fraction unbound in healthy human (6 volunteers) serum at 1 g, po administered as single dose measured after 8 hrs
[53] = Cmax in healthy human (6 volunteers) at 1 g, po administered as single dose by gas liquid chromatography; design: dose 1 g, route oral; conditions: in vivo
[54] = tested on: Serum; assay: Unbound serum concentration in healthy human (6 volunteers) at 1 g, po administered as single dose measured after 5 hrs by enzyme multiple immunotechnique; conditions: in vivo
[55] = tested on: Serum; assay: Unbound serum concentration in healthy human (6 volunteers) at 1 g, po administered as single dose measured after 2 hrs by enzyme multiple immunotechnique; conditions: in vivo

## CCCC(CCC)C(=O)[O-].[Na+] [VALPROATE SODIUM]
[1]
  concentration at 30 h: 23.4 µg/mL
[2]
  AUC: 2120 µg·h/mL
[3]
  fraction unbound at 14 h: 0.026
[4]
  concentration at 2 h: 105 µg/mL
[5]
  fraction unbound at 6 h: 0.044
[6]
  Drug uptake(free): 0 µg/mL
[7]
  concentration at 4 h: 92.9 µg/mL
[8]
  fraction unbound at 2 h: 0.058
[9]
  concentration at 6 h: 85.9 µg/mL
[10]
  fraction unbound at 0.33 h: 0.04
[11]
  fraction unbound at 3 h: 0.049
[12]
  concentration at 24 h: 33.3 µg/mL
[13]
  fraction unbound at 10 h: 0.046
[14]
  Drug uptake(free): 4.3 µg/mL
[15]
  concentration at 3 h: 96.3 µg/mL
[16]
  fraction unbound: 0.041
[17]
  Drug uptake(free): 2.7 µg/mL
[18]
  Drug uptake(free): 5.3 µg/mL
[19]
  concentration at 8 h: 66.9 µg/mL
[20]
  fraction unbound at 5 h: 0.04
[21]
  concentration at 14 h: 47.5 µg/mL
[22]
  concentration at 1.5 h: 103 µg/mL
[23]
  Drug uptake(free): 4.9 µg/mL
[24]
  half-life: 14.9 h
[25]
  Drug uptake(free): 4.6 µg/mL
[26]
  fraction unbound at 1 h: 0.051
[27]
  Drug uptake(free): 1.2 µg/mL
[28]
  concentration at 0.66 h: 95.2 µg/mL
[29]
  Drug uptake(free): 1.9 µg/mL
[30]
  fraction unbound at 1.5 h: 0.042
[31]
  fraction unbound at 12 h: 0.037
[32]
  Drug uptake(free): 0 µg/mL
[33]
  Drug uptake(free): 3.9 µg/mL
[34]
  Drug metabolism: 176.6 mg
[35]
  Tmax: 2 h
[36]
  Drug uptake(free): 0 µg/mL
[37]
  fraction unbound at 4 h: 0.049
[38]
  Drug uptake(free): 0 µg/mL
[39]
  concentration at 5 h: 88.6 µg/mL
[40]
  Drug uptake(free): 3.8 µg/mL
[41]
  Drug uptake(free): 4.7 µg/mL
[42]
  concentration at 12 h: 54.1 µg/mL
[43]
  concentration at 39 h: 15.3 µg/mL
[44]
  concentration at 10 h: 61.4 µg/mL
[45]
  concentration at 0.33 h: 52.3 µg/mL
[46]
  fAUC: 84.2 µg·h/mL
[47]
  concentration at 48 h: 10.6 µg/mL
[48]
  Drug uptake(free): 2.1 µg/mL
[49]
  concentration at 1 h: 105 µg/mL
[50]
  fraction unbound: 0.049
[51]
  fraction unbound at 0.66 h: 0.052
[52]
  fraction unbound at 8 h: 0.059
[53]
  Cmax: 108 µg/mL
[54]
  Drug uptake(free): 3.6 µg/mL
[55]
  Drug uptake(free): 6.1 µg/mL
